According to PubChem BioAssay (NCI):
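Growth conditions: 96-well plates. Treatment: test compound, 48 hours, 5 concentrations. Analysis: linear interpolation between bracketing concentrations; unreached endpoints set to highest concentration. TGI is the concentration that stops growth completely.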

How the values were obtained:
Assay in all cases: inhibition of tumour cell growth, NCI panel, 48 h
IGROV1 ovarian = tested on: IGROV1 ovarian
SNB-19 CNS = tested on: SNB-19 CNS
MCF7 breast = tested on: MCF7 breast
A549 NSCLC = tested on: A549 NSCLC
SK-MEL-28 melanoma = tested on: SK-MEL-28 melanoma
SR leukemia = tested on: SR leukemia
RXF 393 renal = tested on: RXF 393 renal
UO-31 renal = tested on: UO-31 renal
SK-MEL-5 melanoma = tested on: SK-MEL-5 melanoma
SW-620 colon = tested on: SW-620 colon
HCT-116 colon = tested on: HCT-116 colon
HCC-2998 colon = tested on: HCC-2998 colon
MALME-3M melanoma = tested on: MALME-3M melanoma
HCT-15 colon = tested on: HCT-15 colon
CAKI-1 renal = tested on: CAKI-1 renal
OVCAR-5 ovarian = tested on: OVCAR-5 ovarian
RPMI-8226 leukemia = tested on: RPMI-8226 leukemia
BT-549 breast = tested on: BT-549 breast
MDA-MB-435 = tested on: MDA-MB-435
MOLT-4 leukemia = tested on: MOLT-4 leukemia
OVCAR-3 ovarian = tested on: OVCAR-3 ovarian
U251 CNS = tested on: U251 CNS
HS 578T breast = tested on: HS 578T breast
ACHN renal = tested on: ACHN renal
SK-OV-3 ovarian = tested on: SK-OV-3 ovarian
NCI-H226 lung = tested on: NCI-H226 lung
OVCAR-4 ovarian = tested on: OVCAR-4 ovarian
EKVX NSCLC = tested on: EKVX NSCLC
HL-60(TB) leukemia = tested on: HL-60(TB) leukemia
NCI/ADR-RES ovarian = tested on: NCI/ADR-RES ovarian
SN12C renal = tested on: SN12C renal
SF-295 CNS = tested on: SF-295 CNS
K-562 leukemia = tested on: K-562 leukemia
UACC-257 melanoma = tested on: UACC-257 melanoma
DU-145 prostate = tested on: DU-145 prostate
TK-10 renal = tested on: TK-10 renal
NCI-H23 lung = tested on: NCI-H23 lung
MDA-MB-231 breast = tested on: MDA-MB-231 breast
PC-3 prostate = tested on: PC-3 prostate
HT29 colon = tested on: HT29 colon
OVCAR-8 ovarian = tested on: OVCAR-8 ovarian
HOP-62 NSCLC = tested on: HOP-62 NSCLC
M14 melanoma = tested on: M14 melanoma
COLO 205 colon = tested on: COLO 205 colon
786-0 renal = tested on: 786-0 renal
NCI-H522 lung = tested on: NCI-H522 lung
MDA-N = tested on: MDA-N
T-47D breast = tested on: T-47D breast
KM12 colon = tested on: KM12 colon
SK-MEL-2 melanoma = tested on: SK-MEL-2 melanoma
UACC-62 melanoma = tested on: UACC-62 melanoma
LOX IMVI melanoma = tested on: LOX IMVI melanoma
A498 renal = tested on: A498 renal
SF-268 CNS = tested on: SF-268 CNS
CCRF-CEM leukemia = tested on: CCRF-CEM leukemia
SF-539 CNS = tested on: SF-539 CNS
SNB-75 CNS = tested on: SNB-75 CNS
NCI-H460 lung = tested on: NCI-H460 lung
HOP-92 NSCLC = tested on: HOP-92 NSCLC

CCOC(=O)c1cc(C(O)P2(=O)N(CC(C)(C)C)[C@@H]3CCCC[C@H]3N2CC(C)(C)C)cn1C(=O)OC(C)(C)C (some centres not stated)
TGI (IGROV1 ovarian): 18.1 µM | TGI (SNB-19 CNS): 46.2 µM | TGI (MCF7 breast): 51 µM | TGI (A549 NSCLC): 38.8 µM | TGI (SK-MEL-28 melanoma): 30.3 µM | TGI (SR leukemia): 25.6 µM | TGI (RXF 393 renal): 26.6 µM | TGI (UO-31 renal): 28.7 µM | TGI (SK-MEL-5 melanoma): 31.3 µM | TGI (SW-620 colon): 32.6 µM | TGI (HCT-116 colon): 23.2 µM | TGI (HCC-2998 colon): 29.7 µM | TGI (MALME-3M melanoma): 33.6 µM | TGI (HCT-15 colon): 36 µM | TGI (CAKI-1 renal): 51 µM | TGI (OVCAR-5 ovarian): 41.6 µM | TGI (RPMI-8226 leukemia): 29.8 µM | TGI (BT-549 breast): 31.9 µM | TGI (MDA-MB-435): 27 µM | TGI (MOLT-4 leukemia): 34 µM | TGI (OVCAR-3 ovarian): 25 µM | TGI (U251 CNS): 29.4 µM | TGI (HS 578T breast): 36.1 µM | TGI (ACHN renal): > 100 µM | TGI (SK-OV-3 ovarian): 59.2 µM | TGI (NCI-H226 lung): 39.4 µM | TGI (OVCAR-4 ovarian): 77.7 µM | TGI (EKVX NSCLC): 55.6 µM | TGI (HL-60(TB) leukemia): 48.6 µM | TGI (NCI/ADR-RES ovarian): 44.6 µM | TGI (SN12C renal): 27.5 µM | TGI (SF-295 CNS): 32 µM | TGI (K-562 leukemia): 47 µM | TGI (UACC-257 melanoma): 28.7 µM | TGI (DU-145 prostate): 36.2 µM | TGI (TK-10 renal): 57.3 µM | TGI (NCI-H23 lung): 68.3 µM | TGI (MDA-MB-231 breast): 31.4 µM | TGI (PC-3 prostate): 48.5 µM | TGI (HT29 colon): 26.7 µM | TGI (OVCAR-8 ovarian): 47.1 µM | TGI (HOP-62 NSCLC): 28.1 µM | TGI (M14 melanoma): 29.7 µM | TGI (COLO 205 colon): 31.4 µM | TGI (786-0 renal): 31 µM | TGI (NCI-H522 lung): 31.1 µM | TGI (MDA-N): 28 µM | TGI (T-47D breast): > 100 µM | TGI (KM12 colon): 29.2 µM | TGI (SK-MEL-2 melanoma): 32.8 µM | TGI (UACC-62 melanoma): 28.6 µM | TGI (LOX IMVI melanoma): 31.4 µM | TGI (A498 renal): 65.3 µM | TGI (SF-268 CNS): 38.4 µM

CN1c2ccc(Cl)cc2C(=O)NC1c1ccc([N+](=O)[O-])s1 (configuration not stated)
TGI (IGROV1 ovarian): 31.5 µM | TGI (SNB-19 CNS): > 100 µM | TGI (MCF7 breast): 44.6 µM | TGI (A549 NSCLC): 92 µM | TGI (SK-MEL-28 melanoma): 43.7 µM | TGI (SR leukemia): 35.1 µM | TGI (RXF 393 renal): 24.6 µM | TGI (UO-31 renal): 26.5 µM | TGI (SK-MEL-5 melanoma): 31.6 µM | TGI (SW-620 colon): > 100 µM | TGI (CCRF-CEM leukemia): > 100 µM | TGI (SF-539 CNS): 37.5 µM | TGI (HCT-116 colon): 29 µM | TGI (HCC-2998 colon): 31.1 µM | TGI (HCT-15 colon): 35.9 µM | TGI (CAKI-1 renal): 40.7 µM | TGI (OVCAR-5 ovarian): 54.1 µM | TGI (RPMI-8226 leukemia): 26.7 µM | TGI (BT-549 breast): 34.8 µM | TGI (MDA-MB-435): 31.4 µM | TGI (MOLT-4 leukemia): 33.7 µM | TGI (OVCAR-3 ovarian): 31.4 µM | TGI (SNB-75 CNS): 35.4 µM | TGI (U251 CNS): 32.5 µM | TGI (HS 578T breast): 34.2 µM | TGI (ACHN renal): 51.7 µM | TGI (SK-OV-3 ovarian): 67.2 µM | TGI (OVCAR-4 ovarian): 71.5 µM | TGI (EKVX NSCLC): 57.8 µM | TGI (HL-60(TB) leukemia): 49.3 µM | TGI (NCI/ADR-RES ovarian): 35.3 µM | TGI (SN12C renal): 30.9 µM | TGI (SF-295 CNS): 85.7 µM | TGI (K-562 leukemia): 34.8 µM | TGI (UACC-257 melanoma): 29.1 µM | TGI (DU-145 prostate): 45.1 µM | TGI (TK-10 renal): 48.5 µM | TGI (MDA-MB-231 breast): 33.1 µM | TGI (PC-3 prostate): 36.1 µM | TGI (HT29 colon): 39.1 µM | TGI (OVCAR-8 ovarian): 38.9 µM | TGI (HOP-62 NSCLC): 59.6 µM | TGI (M14 melanoma): 32.5 µM | TGI (COLO 205 colon): 66.4 µM | TGI (786-0 renal): 30.8 µM | TGI (MDA-N): 31.7 µM | TGI (T-47D breast): 55 µM | TGI (KM12 colon): 31.9 µM | TGI (SK-MEL-2 melanoma): 30.8 µM | TGI (NCI-H460 lung): 36.4 µM | TGI (UACC-62 melanoma): 26.3 µM | TGI (LOX IMVI melanoma): 28.8 µM | TGI (A498 renal): 32.8 µM | TGI (HOP-92 NSCLC): 33.1 µM | TGI (SF-268 CNS): 21.5 µM

CCOCc1nc2c(OC)cc(-c3nc4ccc(N5CCN(C)CC5)cc4[nH]3)c(OC)c2[nH]1
TGI (IGROV1 ovarian): > 100 µM | TGI (SNB-19 CNS): > 100 µM | TGI (MCF7 breast): > 100 µM | TGI (A549 NSCLC): > 100 µM | TGI (SK-MEL-28 melanoma): 36.3 µM | TGI (SR leukemia): 59.7 µM | TGI (RXF 393 renal): 36.2 µM | TGI (UO-31 renal): 41.8 µM | TGI (SK-MEL-5 melanoma): 31.6 µM | TGI (SW-620 colon): > 100 µM | TGI (CCRF-CEM leukemia): 34 µM | TGI (SF-539 CNS): 36.1 µM | TGI (HCT-116 colon): > 100 µM | TGI (MALME-3M melanoma): 33.5 µM | TGI (HCT-15 colon): > 100 µM | TGI (CAKI-1 renal): 81.9 µM | TGI (OVCAR-5 ovarian): > 100 µM | TGI (RPMI-8226 leukemia): > 100 µM | TGI (BT-549 breast): > 100 µM | TGI (MDA-MB-435): 45.8 µM | TGI (MOLT-4 leukemia): 76.6 µM | TGI (OVCAR-3 ovarian): 70.6 µM | TGI (SNB-75 CNS): 87.1 µM | TGI (U251 CNS): > 100 µM | TGI (HS 578T breast): > 100 µM | TGI (ACHN renal): > 100 µM | TGI (SK-OV-3 ovarian): > 100 µM | TGI (NCI-H226 lung): 81 µM | TGI (OVCAR-4 ovarian): > 100 µM | TGI (EKVX NSCLC): > 100 µM | TGI (HL-60(TB) leukemia): 21.1 µM | TGI (NCI/ADR-RES ovarian): > 100 µM | TGI (SN12C renal): > 100 µM | TGI (SF-295 CNS): 36.8 µM | TGI (K-562 leukemia): > 100 µM | TGI (UACC-257 melanoma): 34.4 µM | TGI (DU-145 prostate): > 100 µM | TGI (TK-10 renal): > 100 µM | TGI (NCI-H23 lung): > 100 µM | TGI (MDA-MB-231 breast): 81.9 µM | TGI (PC-3 prostate): > 100 µM | TGI (HT29 colon): 83 µM | TGI (OVCAR-8 ovarian): > 100 µM | TGI (HOP-62 NSCLC): 62.8 µM | TGI (M14 melanoma): 35.3 µM | TGI (COLO 205 colon): 38 µM | TGI (786-0 renal): > 100 µM | TGI (NCI-H522 lung): 58.2 µM | TGI (MDA-N): 35.9 µM | TGI (T-47D breast): > 100 µM | TGI (KM12 colon): > 100 µM | TGI (SK-MEL-2 melanoma): 40.6 µM | TGI (NCI-H460 lung): 65.1 µM | TGI (UACC-62 melanoma): 34.6 µM | TGI (LOX IMVI melanoma): 42.3 µM | TGI (A498 renal): > 100 µM | TGI (HOP-92 NSCLC): > 100 µM | TGI (SF-268 CNS): > 100 µM
